# According to patent publication US9340590B2 (priority 2011, dated 2016):
# Like-named read-outs stand apart in the source and are kept apart here. Positions of bridges follow the written chain, without caps; N, C: chain ends. Non-standard residues stand in square brackets, D forms with d. Residues, ends and D or L forms follow the SMILES beside them. 1Nal = N[C@@H](Cc1cccc2ccccc12)C(=O)O
# Tests used:
# Test in all cases: cell-based
# hNav1.7 = hNav1.7 (Homo sapiens, UniProt Q15858); details: Nav1.7 Use IC50
# hNav1.5 = hNav1.5 (Homo sapiens, UniProt Q14524)
# hNav1.3 = hNav1.3 (Homo sapiens, UniProt Q9NY46); format: cell-based; details: Nav1.3 Use IC50
# Chain of hNav1.7 (Q15858 whole entry, looked up): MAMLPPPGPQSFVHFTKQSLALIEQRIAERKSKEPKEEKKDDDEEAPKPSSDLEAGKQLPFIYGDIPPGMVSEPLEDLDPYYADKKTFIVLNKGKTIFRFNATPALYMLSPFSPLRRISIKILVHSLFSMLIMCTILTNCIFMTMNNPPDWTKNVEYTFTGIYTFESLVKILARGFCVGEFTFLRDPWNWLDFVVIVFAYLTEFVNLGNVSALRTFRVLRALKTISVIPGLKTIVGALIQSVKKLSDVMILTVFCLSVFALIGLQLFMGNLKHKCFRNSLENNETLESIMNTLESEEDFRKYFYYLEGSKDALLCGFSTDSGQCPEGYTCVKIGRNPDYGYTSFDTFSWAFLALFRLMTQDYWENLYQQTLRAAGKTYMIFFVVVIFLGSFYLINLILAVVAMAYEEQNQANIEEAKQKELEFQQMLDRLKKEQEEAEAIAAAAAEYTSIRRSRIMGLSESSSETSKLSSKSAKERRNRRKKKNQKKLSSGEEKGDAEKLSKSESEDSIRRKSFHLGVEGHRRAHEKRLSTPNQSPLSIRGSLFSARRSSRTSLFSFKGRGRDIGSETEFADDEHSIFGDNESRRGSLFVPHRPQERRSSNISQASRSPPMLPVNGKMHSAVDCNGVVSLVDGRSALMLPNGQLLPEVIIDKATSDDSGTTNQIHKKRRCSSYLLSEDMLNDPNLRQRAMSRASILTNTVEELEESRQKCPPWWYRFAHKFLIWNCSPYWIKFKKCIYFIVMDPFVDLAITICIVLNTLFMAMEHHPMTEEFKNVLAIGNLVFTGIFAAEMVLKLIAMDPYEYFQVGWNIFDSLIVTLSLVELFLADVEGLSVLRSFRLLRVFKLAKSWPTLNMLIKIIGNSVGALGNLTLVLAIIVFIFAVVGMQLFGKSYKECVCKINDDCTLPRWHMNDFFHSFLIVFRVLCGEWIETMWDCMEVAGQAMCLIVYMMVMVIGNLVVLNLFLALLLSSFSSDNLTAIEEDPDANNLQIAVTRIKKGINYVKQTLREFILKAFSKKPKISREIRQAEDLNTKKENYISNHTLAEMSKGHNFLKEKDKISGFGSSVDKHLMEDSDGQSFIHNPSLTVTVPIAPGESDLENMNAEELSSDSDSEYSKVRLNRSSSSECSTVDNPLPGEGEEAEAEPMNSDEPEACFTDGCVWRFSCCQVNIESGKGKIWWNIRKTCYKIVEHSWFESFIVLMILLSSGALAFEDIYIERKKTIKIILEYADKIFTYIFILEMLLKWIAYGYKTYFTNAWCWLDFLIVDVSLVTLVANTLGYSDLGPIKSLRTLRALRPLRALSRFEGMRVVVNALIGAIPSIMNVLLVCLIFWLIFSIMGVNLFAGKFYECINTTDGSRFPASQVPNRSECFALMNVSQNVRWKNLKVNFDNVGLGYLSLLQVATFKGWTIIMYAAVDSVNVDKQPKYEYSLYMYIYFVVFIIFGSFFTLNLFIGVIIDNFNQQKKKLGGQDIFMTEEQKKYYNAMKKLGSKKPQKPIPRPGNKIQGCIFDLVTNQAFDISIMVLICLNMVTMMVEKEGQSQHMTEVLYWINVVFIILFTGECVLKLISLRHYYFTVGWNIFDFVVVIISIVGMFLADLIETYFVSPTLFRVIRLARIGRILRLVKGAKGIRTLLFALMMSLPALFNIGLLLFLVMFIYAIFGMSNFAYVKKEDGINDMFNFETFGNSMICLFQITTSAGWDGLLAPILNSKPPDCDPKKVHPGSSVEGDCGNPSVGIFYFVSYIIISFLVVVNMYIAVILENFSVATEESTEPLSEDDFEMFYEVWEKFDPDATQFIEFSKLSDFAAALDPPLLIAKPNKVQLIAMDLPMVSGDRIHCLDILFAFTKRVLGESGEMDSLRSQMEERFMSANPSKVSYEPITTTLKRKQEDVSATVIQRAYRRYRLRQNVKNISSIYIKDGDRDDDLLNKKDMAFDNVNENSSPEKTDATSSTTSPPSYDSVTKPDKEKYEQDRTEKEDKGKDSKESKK
# Chain of hNav1.5 (Q14524 whole entry, looked up): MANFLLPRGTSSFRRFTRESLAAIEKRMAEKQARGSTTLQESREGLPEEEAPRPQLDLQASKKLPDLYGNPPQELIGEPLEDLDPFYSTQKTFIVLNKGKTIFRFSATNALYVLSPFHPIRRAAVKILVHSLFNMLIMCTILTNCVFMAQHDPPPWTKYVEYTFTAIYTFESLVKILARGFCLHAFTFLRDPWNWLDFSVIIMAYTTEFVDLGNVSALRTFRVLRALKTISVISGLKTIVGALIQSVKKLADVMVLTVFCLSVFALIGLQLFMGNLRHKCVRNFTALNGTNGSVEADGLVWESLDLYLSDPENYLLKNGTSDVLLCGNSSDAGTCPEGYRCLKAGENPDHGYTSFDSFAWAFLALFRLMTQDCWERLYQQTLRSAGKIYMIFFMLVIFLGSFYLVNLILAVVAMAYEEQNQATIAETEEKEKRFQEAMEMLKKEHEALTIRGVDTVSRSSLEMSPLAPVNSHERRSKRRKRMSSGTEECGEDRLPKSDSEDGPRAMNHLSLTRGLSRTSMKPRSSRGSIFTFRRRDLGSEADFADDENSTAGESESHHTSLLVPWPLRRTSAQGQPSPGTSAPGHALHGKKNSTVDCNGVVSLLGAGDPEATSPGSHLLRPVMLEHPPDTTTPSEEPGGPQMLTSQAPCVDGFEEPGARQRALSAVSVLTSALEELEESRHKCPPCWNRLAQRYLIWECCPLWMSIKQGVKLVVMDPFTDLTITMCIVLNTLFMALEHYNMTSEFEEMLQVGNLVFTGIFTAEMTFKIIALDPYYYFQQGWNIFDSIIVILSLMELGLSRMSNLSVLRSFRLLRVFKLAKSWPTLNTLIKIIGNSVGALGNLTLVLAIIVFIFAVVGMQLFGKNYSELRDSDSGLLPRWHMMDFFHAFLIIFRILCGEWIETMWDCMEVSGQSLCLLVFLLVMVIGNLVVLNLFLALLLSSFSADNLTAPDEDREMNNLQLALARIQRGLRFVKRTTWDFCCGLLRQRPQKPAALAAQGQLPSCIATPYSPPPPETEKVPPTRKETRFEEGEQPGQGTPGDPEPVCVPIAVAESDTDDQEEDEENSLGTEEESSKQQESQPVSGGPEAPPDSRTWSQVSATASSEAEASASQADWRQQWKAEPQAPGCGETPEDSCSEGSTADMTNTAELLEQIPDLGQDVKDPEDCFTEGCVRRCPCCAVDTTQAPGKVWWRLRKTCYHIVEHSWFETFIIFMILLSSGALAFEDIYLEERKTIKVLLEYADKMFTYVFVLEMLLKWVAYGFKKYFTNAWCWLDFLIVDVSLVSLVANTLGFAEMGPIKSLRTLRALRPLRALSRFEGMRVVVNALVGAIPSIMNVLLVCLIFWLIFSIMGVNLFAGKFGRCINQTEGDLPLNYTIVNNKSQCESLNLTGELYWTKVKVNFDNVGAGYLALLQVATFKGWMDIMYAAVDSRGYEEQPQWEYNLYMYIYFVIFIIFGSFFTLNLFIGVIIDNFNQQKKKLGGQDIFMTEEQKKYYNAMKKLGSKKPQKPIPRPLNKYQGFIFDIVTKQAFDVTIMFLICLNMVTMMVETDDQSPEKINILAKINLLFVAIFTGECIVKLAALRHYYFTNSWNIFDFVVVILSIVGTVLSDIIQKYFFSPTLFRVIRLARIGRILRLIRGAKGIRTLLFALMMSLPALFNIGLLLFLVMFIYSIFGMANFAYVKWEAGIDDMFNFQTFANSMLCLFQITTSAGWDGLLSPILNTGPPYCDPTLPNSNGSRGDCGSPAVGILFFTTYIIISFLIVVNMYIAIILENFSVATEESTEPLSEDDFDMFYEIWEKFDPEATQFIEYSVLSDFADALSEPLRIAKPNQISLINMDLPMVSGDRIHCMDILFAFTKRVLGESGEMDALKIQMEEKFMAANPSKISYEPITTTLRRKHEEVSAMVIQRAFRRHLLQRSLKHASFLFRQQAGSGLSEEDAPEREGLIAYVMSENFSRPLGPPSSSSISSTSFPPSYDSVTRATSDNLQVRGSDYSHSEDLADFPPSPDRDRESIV
Structure (SMILES),IC50 (hNav1.7),IC50 (hNav1.5),IC50 (hNav1.3),IC50 (hNav1.5; read-out: Nav1.5 Use IC50)
"CC[C@H](C)[C@@H]1NC(=O)[C@@H]2CSSC[C@@H]3NC(=O)[C@H](C(C)C)NC(=O)[C@H](CC(C)C)NC(=O)[C@H](CC(N)=O)NC(=O)[C@@H]4CCCN4C(=O)[C@H](CCCNC(=N)N)NC(=O)[C@H](CSSC[C@H](NC(=O)[C@@H](N)CC(=O)O)C(=O)N[C@@H](CC(C)C)C(=O)NCC(=O)N[C@@H](C)C(=O)N[C@@H](CCSC)C(=O)N[C@@H](CCCNC(=N)N)C(=O)N[C@@H](CCCCN)C(=O)N2)NC(=O)[C@H](CSSC[C@@H](C(=O)N[C@@H](CCCCN)C(=O)N[C@@H](Cc2cccc4ccccc24)C(=O)N[C@H](C(=O)N[C@@H](Cc2ccccc2)C(N)=O)C(C)C)NC(=O)[C@H](Cc2c[nH]c4ccccc24)NC(=O)[C@H](CCCCN)NC(=O)[C@H](Cc2c[nH]cn2)NC(=O)[C@H]([C@@H](C)O)NC(=O)[C@H](CCCNC(=N)N)NC(=O)[C@H](CO)NC3=O)NC(=O)[C@H](CCCCN)NC(=O)[C@H](CC(=O)O)NC(=O)[C@H](CC(N)=O)NC(=O)[C@H](CC(=O)O)NC(=O)[C@@H]2CCCN2C1=O [[Ala5;1-Nal32]GpTx-1(1-34)] (H-DCLGAMRKCIPDNDKCCRPNLVCSRTHKWCK[1Nal]VF-NH2; disulfide 2-17, 9-23, 16-30)",28 nM,> 10000 nM,122 nM,–
"CC[C@H](C)[C@@H]1NC(=O)[C@@H]2CSSC[C@@H]3NC(=O)[C@H](C(C)C)NC(=O)[C@H](CC(C)C)NC(=O)[C@H](CC(N)=O)NC(=O)[C@@H]4CCCN4C(=O)[C@H](CCCNC(=N)N)NC(=O)[C@H](CSSC[C@H](NC(=O)[C@@H](N)CC(=O)O)C(=O)N[C@@H](CC(C)C)C(=O)NCC(=O)N[C@@H](C)C(=O)N[C@@H](CCSC)C(=O)N[C@@H](CCCNC(=N)N)C(=O)N[C@@H](CCCCN)C(=O)N2)NC(=O)[C@H](CSSC[C@@H](C(=O)N[C@@H](CCCCN)C(=O)N[C@@H](Cc2ccc(O)cc2)C(=O)N[C@@H](Cc2cccc4ccccc24)C(=O)N[C@@H](Cc2ccccc2)C(N)=O)NC(=O)[C@H](Cc2c[nH]c4ccccc24)NC(=O)[C@H](CCCCN)NC(=O)[C@H](Cc2c[nH]cn2)NC(=O)[C@H]([C@@H](C)O)NC(=O)[C@H](CCCNC(=N)N)NC(=O)[C@H](CO)NC3=O)NC(=O)[C@H](CCCCN)NC(=O)[C@H](CC(=O)O)NC(=O)[C@H](CC(N)=O)NC(=O)[C@H](CC(=O)O)NC(=O)[C@@H]2CCCN2C1=O [[Ala5;1-Nal33]GpTx-1(1-34)] (H-DCLGAMRKCIPDNDKCCRPNLVCSRTHKWCKY[1Nal]F-NH2; disulfide 2-17, 9-23, 16-30)",48 nM,> 10000 nM,201 nM,–
"CC[C@H](C)[C@@H]1NC(=O)[C@@H]2CSSC[C@@H]3NC(=O)[C@H](C(C)C)NC(=O)[C@H](CC(C)C)NC(=O)[C@H](CC(N)=O)NC(=O)[C@@H]4CCCN4C(=O)[C@H](CCCNC(=N)N)NC(=O)[C@H](CSSC[C@H](NC(=O)[C@@H](N)CC(=O)O)C(=O)N[C@@H](CC(C)C)C(=O)NCC(=O)N[C@@H](C)C(=O)N[C@@H](CCSC)C(=O)N[C@@H](CCCNC(=N)N)C(=O)N[C@@H](CCCCN)C(=O)N2)NC(=O)[C@H](CSSC[C@@H](C(=O)N[C@@H](CCCCN)C(=O)N[C@@H](Cc2ccc(O)cc2)C(=O)N[C@H](C(=O)N[C@@H](Cc2ccccc2)C(N)=O)C(C)C)NC(=O)[C@H](Cc2c[nH]c4ccccc24)NC(=O)[C@H](CCCNC(=N)N)NC(=O)[C@H](Cc2c[nH]cn2)NC(=O)[C@H]([C@@H](C)O)NC(=O)[C@H](CCCNC(=N)N)NC(=O)[C@H](CO)NC3=O)NC(=O)[C@H](CCCCN)NC(=O)[C@H](CC(=O)O)NC(=O)[C@H](CC(N)=O)NC(=O)[C@H](CC(=O)O)NC(=O)[C@@H]2CCCN2C1=O [[Ala5;Arg28]GpTx-1(1-34)] (H-DCLGAMRKCIPDNDKCCRPNLVCSRTHRWCKYVF-NH2; disulfide 2-17, 9-23, 16-30)",77 nM,> 10000 nM,440 nM,–
"CC[C@H](C)[C@@H]1NC(=O)[C@@H]2CSSC[C@@H]3NC(=O)[C@H](C(C)C)NC(=O)[C@H](CC(C)C)NC(=O)[C@H](CC(N)=O)NC(=O)[C@@H]4CCCN4C(=O)[C@H](CCCNC(=N)N)NC(=O)[C@H](CSSC[C@H](NC(=O)[C@@H](N)CC(=O)O)C(=O)N[C@@H](CC(C)C)C(=O)NCC(=O)N[C@@H](C)C(=O)N[C@@H](CCSC)C(=O)N[C@@H](CCCNC(=N)N)C(=O)N[C@@H](CCCCN)C(=O)N2)NC(=O)[C@H](CSSC[C@@H](C(=O)N[C@@H](CCCCN)C(=O)N[C@@H](Cc2c[nH]c4ccccc24)C(=O)N[C@H](C(=O)N[C@@H](Cc2ccccc2)C(N)=O)C(C)C)NC(=O)[C@H](Cc2c[nH]c4ccccc24)NC(=O)[C@H](CCCCN)NC(=O)[C@H](Cc2c[nH]cn2)NC(=O)[C@H]([C@@H](C)O)NC(=O)[C@H](CCCNC(=N)N)NC(=O)[C@H](CO)NC3=O)NC(=O)[C@H](CCCCN)NC(=O)[C@H](CC(=O)O)NC(=O)[C@H](CC(N)=O)NC(=O)[C@H](CC(=O)O)NC(=O)[C@@H]2CCCN2C1=O [[Ala5;Trp32]GpTx-1(1-34)] (H-DCLGAMRKCIPDNDKCCRPNLVCSRTHKWCKWVF-NH2; disulfide 2-17, 9-23, 16-30)",103 nM,> 10000 nM,2980 nM,–
"CC[C@H](C)[C@@H]1NC(=O)[C@@H]2CSSC[C@@H]3NC(=O)[C@H](C(C)C)NC(=O)[C@H](CC(C)C)NC(=O)[C@H](CC(N)=O)NC(=O)[C@@H]4CCCN4C(=O)[C@H](CCCNC(=N)N)NC(=O)[C@H](CSSC[C@H](NC(=O)[C@@H](N)CC(=O)O)C(=O)N[C@@H](CC(C)C)C(=O)NCC(=O)N[C@@H](C)C(=O)N[C@@H](CCSC)C(=O)N[C@@H](CCCNC(=N)N)C(=O)N[C@@H](CCCCN)C(=O)N2)NC(=O)[C@H](CSSC[C@@H](C(=O)N[C@@H](CCCCN)C(=O)N[C@@H](Cc2ccc(O)cc2)C(=O)N[C@@H](Cc2c[nH]c4ccccc24)C(=O)N[C@@H](Cc2ccccc2)C(N)=O)NC(=O)[C@H](Cc2c[nH]c4ccccc24)NC(=O)[C@H](CCCCN)NC(=O)[C@H](Cc2c[nH]cn2)NC(=O)[C@H]([C@@H](C)O)NC(=O)[C@H](CCCNC(=N)N)NC(=O)[C@H](CO)NC3=O)NC(=O)[C@H](CCCCN)NC(=O)[C@H](CC(=O)O)NC(=O)[C@H](CC(N)=O)NC(=O)[C@H](CC(=O)O)NC(=O)[C@@H]2CCCN2C1=O [[Ala5;Trp33]GpTx-1(1-34)] (H-DCLGAMRKCIPDNDKCCRPNLVCSRTHKWCKYWF-NH2; disulfide 2-17, 9-23, 16-30)",34 nM,> 10000 nM,569 nM,–
"CC[C@H](C)[C@@H]1NC(=O)[C@@H]2CSSC[C@@H]3NC(=O)[C@H](C(C)C)NC(=O)[C@H](CC(C)C)NC(=O)[C@H](CC(N)=O)NC(=O)[C@@H]4CCCN4C(=O)[C@H](CCCNC(=N)N)NC(=O)[C@H](CSSC[C@H](NC(=O)[C@@H](N)CC(=O)O)C(=O)N[C@@H](CC(C)C)C(=O)NCC(=O)N[C@@H](Cc4ccccc4)C(=O)N[C@@H](CCSC)C(=O)N[C@@H](CCCNC(=N)N)C(=O)N[C@@H](CCCCN)C(=O)N2)NC(=O)[C@H](CSSC[C@@H](C(=O)N[C@@H](CCCCN)C(=O)N[C@@H](Cc2cccc4ccccc24)C(=O)N[C@H](C(=O)N[C@@H](Cc2ccccc2)C(N)=O)C(C)C)NC(=O)[C@H](Cc2c[nH]c4ccccc24)NC(=O)[C@H](CCCNC(=N)N)NC(=O)[C@H](Cc2c[nH]cn2)NC(=O)[C@H]([C@@H](C)O)NC(=O)[C@H](CCCNC(=N)N)NC(=O)[C@H](CO)NC3=O)NC(=O)[C@H](CCCCN)NC(=O)[C@H](CC(=O)O)NC(=O)[C@H](CC(N)=O)NC(=O)[C@H](CC(=O)O)NC(=O)[C@@H]2CCCN2C1=O [[Arg28;1-Nal32]GpTx-1(1-34)] (H-DCLGFMRKCIPDNDKCCRPNLVCSRTHRWCK[1Nal]VF-NH2; disulfide 2-17, 9-23, 16-30)",5 nM,1060 nM,6 nM,–
CC[C@H](C)[C@@H]1NC(=O)[C@@H]2CSSC[C@@H]3NC(=O)[C@H](C(C)C)NC(=O)[C@H](CC(C)C)NC(=O)[C@H](CC(N)=O)NC(=O)[C@@H]4CCCN4C(=O)[C@H](CCCNC(=N)N)NC(=O)[C@H](CSSC[C@H](NC(=O)[C@@H](N)CC(=O)O)C(=O)N[C@@H](CC(C)C)C(=O)NCC(=O)N[C@@H](Cc4ccccc4)C(=O)N[C@@H](CCSC)C(=O)N[C@@H](CCCNC(=N)N)C(=O)N[C@@H](CCCCN)C(=O)N2)NC(=O)[C@H](CSSC[C@@H](C(=O)N[C@@H](CCCCN)C(=O)N[C@@H](Cc2ccc(O)cc2)C(=O)N[C@H](C(=O)N[C@@H](Cc2ccccc2)C(N)=O)C(C)C)NC(=O)[C@H](Cc2c[nH]c4ccccc24)NC(=O)[C@H](CCCNC(=N)N)NC(=O)[C@H](Cc2c[nH]cn2)NC(=O)[C@H]([C@@H](C)O)NC(=O)[C@H](CCCNC(=N)N)NC(=O)[C@H](CO)NC3=O)NC(=O)[C@H](CCCCN)NC(=O)[C@H](CC(=O)O)NC(=O)[C@H](CC(N)=O)NC(=O)[C@H](CC(=O)O)NC(=O)[C@@H]2CCCN2C1=O [[Arg28]GpTx-1(1-34)],7 nM,–,12 nM,8730 nM
"CC[C@H](C)[C@@H]1NC(=O)[C@@H]2CSSC[C@@H]3NC(=O)[C@H](C(C)C)NC(=O)[C@H](CC(C)C)NC(=O)[C@H](CC(N)=O)NC(=O)[C@@H]4CCCN4C(=O)[C@H](CCCNC(=N)N)NC(=O)[C@H](CSSC[C@H](NC(=O)[C@@H](N)CC(=O)O)C(=O)N[C@@H](CC(C)C)C(=O)NCC(=O)N[C@@H](Cc4ccccc4)C(=O)N[C@@H](CCSC)C(=O)N[C@@H](CCCNC(=N)N)C(=O)N[C@@H](CCCCN)C(=O)N2)NC(=O)[C@H](CSSC[C@@H](C(=O)N[C@@H](CCCCN)C(=O)N[C@@H](Cc2ccc(O)cc2)C(=O)N[C@@H](CCC(N)=O)C(=O)N[C@@H](Cc2ccccc2)C(N)=O)NC(=O)[C@H](Cc2c[nH]c4ccccc24)NC(=O)[C@H](CCCCN)NC(=O)[C@H](Cc2c[nH]cn2)NC(=O)[C@H]([C@@H](C)O)NC(=O)[C@H](CCCNC(=N)N)NC(=O)[C@H](CO)NC3=O)NC(=O)[C@H](CCCCN)NC(=O)[C@H](CC(=O)O)NC(=O)[C@H](CC(N)=O)NC(=O)[C@H](CC(=O)O)NC(=O)[C@@H]2CCCN2C1=O [[Gln33]GpTx-1(1-34)] (H-DCLGFMRKCIPDNDKCCRPNLVCSRTHKWCKYQF-NH2; disulfide 2-17, 9-23, 16-30)",6 nM,8250 nM,10 nM,–
